Source: PMC6704710, “Preclinical evaluation of 3D185, a novel potent inhibitor of FGFR1/2/3 and CSF-1R, in FGFR-dependent and macrophage-dominant cancer models” (Journal of Experimental & Clinical Cancer Research : CR, 2019)

Experiments:
[1] = test system: NCI-H1581 subcutaneous xenograft; type: in vivo; details: 50 mg/kg oral once daily 14 days
Protocol: […]. When the tumor volume reached 100–150 mm^3, the mice were randomly assigned to the vehicle control group (n = 12) or a treatment group (n = 6 per group). […].
The tumors were measured twice per week using a microcaliper. Tumor volume (TV) was calculated as follows: TV = (length × width^2)/2. In addition, the individual relative tumor volume (RTV) was calculated as follows: RTV = Vt / V0, where Vt is the volume on a particular day and V0 is the volume at the beginning of the treatment. The RTV is shown on the indicated days as the […] ± SEM for the indicated groups of mice. […]

cKit(h) = biological target: T1, cKit(h) (Homo sapiens, UniProt P10721); assay: Eurofins kinase panel; type: biochemical; details: read-out: Inhibition rate (%)
T1 construct: purchased Eurofins (KinaseProfiler)
T1 sequence (P10721 26-976): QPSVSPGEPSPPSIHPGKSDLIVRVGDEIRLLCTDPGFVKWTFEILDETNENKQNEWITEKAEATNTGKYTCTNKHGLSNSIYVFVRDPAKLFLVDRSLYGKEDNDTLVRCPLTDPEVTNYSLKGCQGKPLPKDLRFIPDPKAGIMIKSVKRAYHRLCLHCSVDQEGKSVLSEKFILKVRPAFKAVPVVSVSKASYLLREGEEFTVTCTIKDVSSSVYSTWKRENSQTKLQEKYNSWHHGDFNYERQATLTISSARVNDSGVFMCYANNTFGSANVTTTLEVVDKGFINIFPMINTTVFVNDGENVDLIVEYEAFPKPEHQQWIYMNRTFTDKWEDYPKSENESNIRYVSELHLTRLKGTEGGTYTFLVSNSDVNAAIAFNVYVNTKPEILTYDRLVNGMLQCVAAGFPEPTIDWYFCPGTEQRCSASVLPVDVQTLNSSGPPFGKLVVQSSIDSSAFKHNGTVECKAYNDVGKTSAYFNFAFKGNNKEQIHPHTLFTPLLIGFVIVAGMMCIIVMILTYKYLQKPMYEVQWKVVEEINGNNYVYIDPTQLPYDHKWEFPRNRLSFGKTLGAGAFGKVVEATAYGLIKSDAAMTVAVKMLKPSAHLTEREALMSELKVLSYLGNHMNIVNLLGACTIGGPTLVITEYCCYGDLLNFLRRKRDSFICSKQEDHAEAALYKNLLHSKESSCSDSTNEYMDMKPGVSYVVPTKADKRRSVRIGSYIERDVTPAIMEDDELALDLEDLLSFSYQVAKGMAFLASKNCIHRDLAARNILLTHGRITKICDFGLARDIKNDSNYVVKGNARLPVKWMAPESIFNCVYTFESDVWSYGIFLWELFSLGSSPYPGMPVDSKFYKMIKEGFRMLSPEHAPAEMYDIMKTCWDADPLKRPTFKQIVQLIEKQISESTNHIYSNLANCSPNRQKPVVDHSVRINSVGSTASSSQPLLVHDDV

MLK2(h) = biological target: T2, MLK2(h) (Homo sapiens, UniProt Q02779); assay: Eurofins kinase panel; type: biochemical; details: read-out: Inhibition rate (%)
T2 construct: purchased Eurofins (KinaseProfiler)
T2 sequence (Q02779 whole entry): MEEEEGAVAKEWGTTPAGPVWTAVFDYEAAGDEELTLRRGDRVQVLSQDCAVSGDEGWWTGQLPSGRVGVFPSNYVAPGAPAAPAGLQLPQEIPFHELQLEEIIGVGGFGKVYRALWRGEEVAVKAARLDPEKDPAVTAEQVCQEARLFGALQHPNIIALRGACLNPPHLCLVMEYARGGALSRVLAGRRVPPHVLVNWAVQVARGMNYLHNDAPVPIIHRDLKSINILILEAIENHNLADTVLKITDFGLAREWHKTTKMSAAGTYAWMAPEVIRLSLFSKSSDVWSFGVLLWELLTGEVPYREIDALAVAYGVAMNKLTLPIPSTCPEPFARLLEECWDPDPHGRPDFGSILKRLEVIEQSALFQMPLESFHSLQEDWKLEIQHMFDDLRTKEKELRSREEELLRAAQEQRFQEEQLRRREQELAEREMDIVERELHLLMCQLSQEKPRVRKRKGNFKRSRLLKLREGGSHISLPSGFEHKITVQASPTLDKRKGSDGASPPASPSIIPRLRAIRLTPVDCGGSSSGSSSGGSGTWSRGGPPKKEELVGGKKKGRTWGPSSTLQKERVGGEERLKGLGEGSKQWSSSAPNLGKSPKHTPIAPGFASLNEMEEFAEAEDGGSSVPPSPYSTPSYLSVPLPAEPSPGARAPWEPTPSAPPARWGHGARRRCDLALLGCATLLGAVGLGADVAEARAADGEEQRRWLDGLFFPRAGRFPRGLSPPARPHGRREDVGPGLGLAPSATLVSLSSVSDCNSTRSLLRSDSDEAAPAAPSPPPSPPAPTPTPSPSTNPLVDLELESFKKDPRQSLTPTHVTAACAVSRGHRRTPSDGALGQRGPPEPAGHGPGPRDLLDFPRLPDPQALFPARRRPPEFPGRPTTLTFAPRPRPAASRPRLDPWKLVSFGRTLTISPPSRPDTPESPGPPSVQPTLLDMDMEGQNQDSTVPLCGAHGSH

PEK(h) = biological target: T3, PEK(h) (Homo sapiens, UniProt Q9NZJ5); assay: Eurofins kinase panel; type: biochemical; details: read-out: Inhibition rate (%)
T3 construct: purchased Eurofins (KinaseProfiler)
T3 sequence (Q9NZJ5 30-1116): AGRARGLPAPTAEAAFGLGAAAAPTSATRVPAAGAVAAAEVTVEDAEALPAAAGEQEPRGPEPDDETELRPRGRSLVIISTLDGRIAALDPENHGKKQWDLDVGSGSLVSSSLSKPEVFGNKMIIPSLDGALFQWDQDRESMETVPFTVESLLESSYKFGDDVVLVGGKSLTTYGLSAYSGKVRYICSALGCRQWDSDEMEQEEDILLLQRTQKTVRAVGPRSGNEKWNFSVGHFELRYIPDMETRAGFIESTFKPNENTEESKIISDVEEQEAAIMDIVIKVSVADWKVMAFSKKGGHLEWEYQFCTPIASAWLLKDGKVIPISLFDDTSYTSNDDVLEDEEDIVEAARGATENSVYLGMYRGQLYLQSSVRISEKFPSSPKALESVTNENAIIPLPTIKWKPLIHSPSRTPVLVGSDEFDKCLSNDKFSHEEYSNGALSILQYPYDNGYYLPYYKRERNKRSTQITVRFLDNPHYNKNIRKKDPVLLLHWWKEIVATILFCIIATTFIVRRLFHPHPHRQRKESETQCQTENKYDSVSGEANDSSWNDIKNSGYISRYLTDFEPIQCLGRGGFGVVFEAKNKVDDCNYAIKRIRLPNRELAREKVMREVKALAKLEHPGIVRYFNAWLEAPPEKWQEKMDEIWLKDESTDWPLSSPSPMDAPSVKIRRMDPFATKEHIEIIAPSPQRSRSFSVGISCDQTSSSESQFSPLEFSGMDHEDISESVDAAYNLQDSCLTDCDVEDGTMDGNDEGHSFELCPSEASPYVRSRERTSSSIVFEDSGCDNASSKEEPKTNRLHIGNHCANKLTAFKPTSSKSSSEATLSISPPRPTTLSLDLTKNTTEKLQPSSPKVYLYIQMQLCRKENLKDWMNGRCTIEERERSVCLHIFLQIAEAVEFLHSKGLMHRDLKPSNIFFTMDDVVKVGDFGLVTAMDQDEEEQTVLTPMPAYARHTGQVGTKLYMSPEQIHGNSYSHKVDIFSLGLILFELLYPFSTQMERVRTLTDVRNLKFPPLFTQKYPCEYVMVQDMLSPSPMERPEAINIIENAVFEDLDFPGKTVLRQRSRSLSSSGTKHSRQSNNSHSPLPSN

VRK2(h) = biological target: T4, VRK2(h) (Homo sapiens, UniProt Q86Y07); assay: Eurofins kinase panel; type: biochemical; details: read-out: Inhibition rate (%)
T4 construct: purchased Eurofins (KinaseProfiler)
T4 sequence (Q86Y07 whole entry): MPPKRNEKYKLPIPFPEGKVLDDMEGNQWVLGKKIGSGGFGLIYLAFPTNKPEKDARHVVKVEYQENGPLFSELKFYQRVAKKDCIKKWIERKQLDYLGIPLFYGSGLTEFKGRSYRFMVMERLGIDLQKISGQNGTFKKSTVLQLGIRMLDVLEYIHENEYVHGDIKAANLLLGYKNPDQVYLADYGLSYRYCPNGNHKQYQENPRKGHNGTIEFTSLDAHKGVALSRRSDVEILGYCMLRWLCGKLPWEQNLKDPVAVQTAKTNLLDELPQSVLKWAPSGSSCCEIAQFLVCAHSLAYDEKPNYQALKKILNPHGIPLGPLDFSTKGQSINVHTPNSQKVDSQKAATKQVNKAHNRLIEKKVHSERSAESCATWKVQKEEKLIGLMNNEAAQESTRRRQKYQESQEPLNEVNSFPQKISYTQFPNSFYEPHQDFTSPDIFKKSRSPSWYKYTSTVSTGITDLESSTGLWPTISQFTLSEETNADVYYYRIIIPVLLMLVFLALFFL

STK32A(h) = biological target: T5, STK32A(h) (Homo sapiens, UniProt Q8WU08); assay: Eurofins kinase panel; type: biochemical; details: read-out: Inhibition rate (%)
T5 construct: purchased Eurofins (KinaseProfiler)
T5 sequence (Q8WU08 whole entry): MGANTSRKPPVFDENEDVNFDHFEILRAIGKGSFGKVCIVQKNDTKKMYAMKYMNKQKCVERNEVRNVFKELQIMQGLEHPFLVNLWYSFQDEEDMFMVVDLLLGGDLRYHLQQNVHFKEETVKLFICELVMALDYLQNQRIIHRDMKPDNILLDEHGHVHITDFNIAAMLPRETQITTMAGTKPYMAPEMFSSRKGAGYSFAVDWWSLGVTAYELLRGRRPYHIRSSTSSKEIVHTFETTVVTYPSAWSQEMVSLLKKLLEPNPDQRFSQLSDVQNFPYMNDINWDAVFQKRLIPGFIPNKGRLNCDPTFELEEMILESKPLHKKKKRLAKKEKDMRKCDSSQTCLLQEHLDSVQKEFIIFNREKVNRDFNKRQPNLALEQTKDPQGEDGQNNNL

EphA2(h) = biological target: T6, EphA2(h) (Homo sapiens, UniProt P29317); assay: Eurofins kinase panel; type: biochemical; details: read-out: Inhibition rate (%)
T6 construct: purchased Eurofins (KinaseProfiler)
T6 sequence (P29317 24-976): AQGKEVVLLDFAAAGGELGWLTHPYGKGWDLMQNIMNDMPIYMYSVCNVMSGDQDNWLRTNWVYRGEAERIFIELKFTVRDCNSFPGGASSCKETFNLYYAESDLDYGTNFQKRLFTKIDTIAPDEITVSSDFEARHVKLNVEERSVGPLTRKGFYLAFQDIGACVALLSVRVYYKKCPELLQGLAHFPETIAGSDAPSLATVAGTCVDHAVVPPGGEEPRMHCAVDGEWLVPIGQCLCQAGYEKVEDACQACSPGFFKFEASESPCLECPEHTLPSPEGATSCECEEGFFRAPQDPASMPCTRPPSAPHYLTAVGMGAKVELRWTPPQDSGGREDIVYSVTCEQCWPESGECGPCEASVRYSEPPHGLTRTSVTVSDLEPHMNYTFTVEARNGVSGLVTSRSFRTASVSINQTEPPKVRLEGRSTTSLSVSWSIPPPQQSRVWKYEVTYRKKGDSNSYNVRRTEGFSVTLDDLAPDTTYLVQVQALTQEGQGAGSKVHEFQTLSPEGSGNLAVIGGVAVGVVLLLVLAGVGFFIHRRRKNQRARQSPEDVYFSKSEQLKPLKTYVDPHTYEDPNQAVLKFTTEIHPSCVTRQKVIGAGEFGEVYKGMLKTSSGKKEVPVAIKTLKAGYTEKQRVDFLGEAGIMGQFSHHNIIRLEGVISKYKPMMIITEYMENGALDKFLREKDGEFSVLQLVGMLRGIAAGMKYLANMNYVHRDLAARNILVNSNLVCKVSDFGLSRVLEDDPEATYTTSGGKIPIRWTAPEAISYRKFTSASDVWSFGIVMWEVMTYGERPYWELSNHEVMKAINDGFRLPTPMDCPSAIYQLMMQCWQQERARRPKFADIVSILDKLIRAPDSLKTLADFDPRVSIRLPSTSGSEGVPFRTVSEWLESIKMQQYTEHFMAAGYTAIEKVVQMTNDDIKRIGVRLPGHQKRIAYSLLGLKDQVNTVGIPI

PKBα(h) = biological target: T7, PKBα(h) (Homo sapiens, UniProt P31749); assay: Eurofins kinase panel; type: biochemical; details: read-out: Inhibition rate (%)
T7 construct: purchased Eurofins (KinaseProfiler)
T7 sequence (P31749 whole entry): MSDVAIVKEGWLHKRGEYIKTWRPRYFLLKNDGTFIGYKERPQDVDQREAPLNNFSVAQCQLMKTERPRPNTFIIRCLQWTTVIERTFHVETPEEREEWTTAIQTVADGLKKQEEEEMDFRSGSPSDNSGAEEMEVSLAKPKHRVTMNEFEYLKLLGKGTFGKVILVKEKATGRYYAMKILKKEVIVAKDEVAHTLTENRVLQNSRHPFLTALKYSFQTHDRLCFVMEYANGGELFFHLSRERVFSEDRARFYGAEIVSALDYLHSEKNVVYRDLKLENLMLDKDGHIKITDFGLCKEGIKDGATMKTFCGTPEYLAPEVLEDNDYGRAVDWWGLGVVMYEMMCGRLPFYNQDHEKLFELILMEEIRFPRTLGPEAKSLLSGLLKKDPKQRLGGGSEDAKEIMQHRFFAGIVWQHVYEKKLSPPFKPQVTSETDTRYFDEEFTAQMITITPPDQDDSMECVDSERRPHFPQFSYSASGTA

BrSK2(h) = biological target: T8, BrSK2(h) (Homo sapiens, UniProt Q8IWQ3); assay: Eurofins kinase panel; type: biochemical; details: read-out: Inhibition rate (%)
T8 construct: purchased Eurofins (KinaseProfiler)
T8 sequence (Q8IWQ3 1-736): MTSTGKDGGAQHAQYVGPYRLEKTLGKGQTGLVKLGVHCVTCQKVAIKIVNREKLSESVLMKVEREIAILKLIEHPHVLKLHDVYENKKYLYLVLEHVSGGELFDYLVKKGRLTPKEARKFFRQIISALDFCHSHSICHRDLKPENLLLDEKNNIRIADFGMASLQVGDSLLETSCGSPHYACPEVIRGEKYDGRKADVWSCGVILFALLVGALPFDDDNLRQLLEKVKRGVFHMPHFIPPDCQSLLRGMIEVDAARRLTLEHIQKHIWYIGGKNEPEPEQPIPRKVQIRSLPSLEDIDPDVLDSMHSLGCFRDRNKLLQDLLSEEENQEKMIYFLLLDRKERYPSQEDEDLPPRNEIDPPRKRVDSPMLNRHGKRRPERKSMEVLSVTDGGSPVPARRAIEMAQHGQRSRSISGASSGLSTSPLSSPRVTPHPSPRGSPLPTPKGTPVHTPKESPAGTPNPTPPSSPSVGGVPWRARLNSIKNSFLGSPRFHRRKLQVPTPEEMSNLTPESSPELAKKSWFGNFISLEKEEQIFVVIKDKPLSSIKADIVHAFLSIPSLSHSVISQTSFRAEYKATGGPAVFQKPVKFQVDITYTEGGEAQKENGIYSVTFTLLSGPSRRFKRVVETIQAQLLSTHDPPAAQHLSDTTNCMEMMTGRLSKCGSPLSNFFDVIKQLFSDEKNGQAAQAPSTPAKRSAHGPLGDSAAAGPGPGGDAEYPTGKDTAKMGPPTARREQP

## COc1cc(OC)c(Cl)c(-c2ccc3c(NC(=O)c4ccc(N5CCNC(C)(C)C5)cc4)n[nH]c3n2)c1Cl [3D185]
[1]
  tumor growth inhibition rate: 96.4%
cKit(h); 10 nM
  inhibition at 0.01 µM: 19%
cKit(h); 100 nM
  inhibition at 0.1 µM: 35%
cKit(h); 1000 nM
  inhibition at 1 µM: 76%
MLK2(h); 10 nM
  inhibition at 0.01 µM: 4%
MLK2(h); 100 nM
  inhibition at 0.1 µM: 2%
MLK2(h); 1000 nM
  inhibition at 1 µM: 24%
PEK(h); 10 nM
  inhibition at 0.01 µM: -7%
PEK(h); 100 nM
  inhibition at 0.1 µM: 6%
PEK(h); 1000 nM
  inhibition at 1 µM: 55%
VRK2(h); 10 nM
  inhibition at 0.01 µM: 4%
VRK2(h); 100 nM
  inhibition at 0.1 µM: 11%
VRK2(h); 1000 nM
  inhibition at 1 µM: 17%
STK32A(h); 10 nM
  inhibition at 0.01 µM: -5%
STK32A(h); 100 nM
  inhibition at 0.1 µM: 0%
STK32A(h); 1000 nM
  inhibition at 1 µM: 2%
EphA2(h); 10 nM
  inhibition at 0.01 µM: 13%
EphA2(h); 100 nM
  inhibition at 0.1 µM: 24%
EphA2(h); 1000 nM
  inhibition at 1 µM: 73%
PKBα(h); 10 nM
  inhibition at 0.01 µM: -6%
PKBα(h); 100 nM
  inhibition at 0.1 µM: -8%
PKBα(h); 1000 nM
  inhibition at 1 µM: -7%
BrSK2(h); 10 nM
  inhibition at 0.01 µM: 8%
BrSK2(h); 100 nM
  inhibition at 0.1 µM: 5%
BrSK2(h); 1000 nM
  inhibition at 1 µM: 11%
